# Measurements reported in ChEMBL document CHEMBL5038660, “Computational and Structure-Based Development of High Potent Cell-Active Covalent Inhibitor Targeting the Peptidyl-Prolyl Isomerase NIMA-Interacting-1 (Pin1)” (J Med Chem, 2022).
# Active and inactive are the calls of the source. The calls are words filed in the database; no cut-off is given here.
# Assays:
# [1] = target: T1, Peptidyl-prolyl cis-trans isomerase NIMA-interacting 1 (Homo sapiens, UniProt Q13526); assay: Ratio of test compound IC50 to ZL-Pin01 IC50 for N-terminal-GST-fused human Pin1 expressed in Escherichia coli BL21(DE3) by fluorescence polarization assay
# [2] = target: T1, Peptidyl-prolyl cis-trans isomerase NIMA-interacting 1; assay: Displacement of 5-FITC-(Acp)-Bth-D-pThr-Pip-2-NaI-Q from N-terminal-GST-fused human Pin1 expressed in Escherichia coli BL21(DE3) incubated for 12 hrs by fluorescence polarization assay
# [3] = target: T1, Peptidyl-prolyl cis-trans isomerase NIMA-interacting 1; assay: Displacement of 5-FITC-(Acp)-Bth-D-pThr-Pip-2-NaI-Q from N-terminal-GST-fused human Pin1 expressed in Escherichia coli BL21(DE3) at 20 to 50 uM incubated for 12 hrs by fluorescence polarization assay; conditions: dose 20-50 µM
# [4] = target: T1, Peptidyl-prolyl cis-trans isomerase NIMA-interacting 1; assay: Covalent binding affinity to N-terminal His6-tagged human Pin1 expressed in Escherichia coli BL21 (DE3) incubated for overnight by mass spectrometry
# MDA-MB-231 [5] = assay: Downregulation of cyclin D1 protein expression in human MDA-MB-231 cells transfected with PIN1 siRNA at 5 to 10 uM by western blot analysis; type: functional, cell-based; conditions: dose 5-10 µM
# MDA-MB-231 [6] = assay: Antiproliferative activity against human MDA-MB-231 cells assessed as reduction in cell viability incubated for 3 days by CellTiter-Glo luminescent assay; type: functional, cell-based; conditions: MDA-MB-231, 72 h
# MDA-MB-468 [7] = assay: Antiproliferative activity against human MDA-MB-468 cells assessed as reduction in cell viability incubated for 3 days by CellTiter-Glo luminescent assay; type: functional, cell-based; conditions: MDA-MB-468, 72 h
# MDA-MB-468 [8] = assay: Antiproliferative activity against human MDA-MB-468 cells assessed as reduction in cell viability incubated for 8 days with 48 hrs fresh compound replenishment by CellTiter-Glo luminescent assay; type: functional, cell-based; conditions: time 8.0 day
# [9] = target: T1, Peptidyl-prolyl cis-trans isomerase NIMA-interacting 1; assay: Inhibition of Pin1 in human MDA-MB-231 cells assessed as induction of Pin1 degradation incubated for 16 hrs by immunoblot analysis; type: cell-based; conditions: dose 2.5-15 µM
# [10] = target: T1, Peptidyl-prolyl cis-trans isomerase NIMA-interacting 1; assay: Inhibition of Pin1 in human MDA-MB-231 cells assessed as reduction in MCL-1 level at 5 to 10 uM by western blot analysis; type: cell-based; conditions: dose 5-10 µM
# [11] = target: T1, Peptidyl-prolyl cis-trans isomerase NIMA-interacting 1; assay: Inhibition of Pin1 in human MDA-MB-231 cells assessed as reduction in c-Myc level at 5 to 10 uM by western blot analysis; type: cell-based; conditions: dose 5-10 µM
# [12] = target: T1, Peptidyl-prolyl cis-trans isomerase NIMA-interacting 1; assay: Inhibition of Pin1 in human MDA-MB-231 cells assessed as reduction in cyclin D1 level at 5 to 10 uM by western blot analysis; type: cell-based; conditions: dose 5-10 µM
# MDA-MB-231 [13] = assay: Downregulation of MCL-1 gene expression in PIN-1 knockout human MDA-MB-231 cells at 4 to 8 uM incubated for 24 hrs by qRT-PCR analysis; type: functional, cell-based; conditions: dose 4-8 µM
# MDA-MB-231 [14] = assay: Downregulation of CCND1 gene expression in PIN-1 knockout human MDA-MB-231 cells at 4 to 8 uM incubated for 24 hrs by qRT-PCR analysis; type: functional, cell-based; conditions: dose 4-8 µM
# MDA-MB-231 [15] = assay: Downregulation of C-MYC gene expression in PIN-1 knockout human MDA-MB-231 cells at 4 to 8 uM incubated for 24 hrs by qRT-PCR analysis; type: functional, cell-based; conditions: dose 4-8 µM
# [16] = target: T1, Peptidyl-prolyl cis-trans isomerase NIMA-interacting 1; assay: Covalent binding affinity to Cys113 residue of N-terminal His6-tagged human Pin1 expressed in Escherichia coli BL21 (DE3) incubated for overnight followed by tryptic digestion for 16 hrs by HPLC-nESI MS/MS scan analysis
# [17] = target: T1, Peptidyl-prolyl cis-trans isomerase NIMA-interacting 1; assay: Covalent binding affinity to N-terminal His6-tagged human Pin1 expressed in Escherichia coli BL21 (DE3) assessed as increase in 418.16 Da molecular weight incubated for overnight by mass spectrometry
# Homo sapiens = species on record: Homo sapiens; assay: Displacement of 5-FITC-(Acp)-Bth-D-pThr-Pip-2-NaI-Q from human Pin1 C57A mutant expressed in Escherichia coli BL21(DE3) incubated for 12 hrs by fluorescence polarization assay
# [18] = test system: Peptidyl-prolyl cis-trans isomerase NIMA-interacting 1 (Homo sapiens), Q13526 [C113A]; assay: Displacement of 5-FITC-(Acp)-Bth-D-pThr-Pip-2-NaI-Q from human Pin1 C113A mutant expressed in Escherichia coli BL21(DE3) incubated for 12 hrs by fluorescence polarization assay
# [19] = test system: Peptidyl-prolyl cis-trans isomerase NIMA-interacting 1 (Homo sapiens), Q13526 [C113A]; assay: Covalent binding affinity to N-terminal His6-tagged human Pin1 C113A mutant expressed in Escherichia coli BL21(DE3) at compound:protein ratio of 3:1 to 5:1 incubated for overnight by mass spectrometry
# [20] = target: T1, Peptidyl-prolyl cis-trans isomerase NIMA-interacting 1; assay: Displacement of 5-FITC-(Acp)-Bth-D-pThr-Pip-2-NaI-Q from N-terminal-GST-fused human Pin1 expressed in Escherichia coli BL21(DE3) assessed as maximum rate of inactivation incubated for 12 hrs by fluorescence polarization assay
# [21] = target: T1, Peptidyl-prolyl cis-trans isomerase NIMA-interacting 1; assay: Displacement of 5-FITC-(Acp)-Bth-D-pThr-Pip-2-NaI-Q from N-terminal-GST-fused human Pin1 expressed in Escherichia coli BL21(DE3) assessed as Kinact/Ki ratio incubated for 12 hrs by fluorescence polarization assay
# MDA-MB-468 [22] = assay: Inhibition of colony formation in human MDA-MB-468 cells at 0.25 to 4 uM incubated for 12 days with 48 hrs fresh compound replenishment by crystal violet staining based analysis; type: functional, cell-based; conditions: dose 0.25-4 µM, time 12.0 day
# MDA-MB-231 [23] = assay: Inhibition of colony formation in human MDA-MB-231 cells at 0.25 to 4 uM incubated for 12 days with 48 hrs fresh compound replenishment by crystal violet staining based analysis; type: functional, cell-based; conditions: dose 0.25-4 µM, time 12.0 day
# MDA-MB-231 [24] = assay: Downregulation of MCL-1 protein expression in human MDA-MB-231 cells transfected with PIN1 siRNA at 5 to 10 uM by western blot analysis; type: functional, cell-based; conditions: dose 5-10 µM
# MDA-MB-231 [25] = assay: Downregulation of c-Myc protein expression in human MDA-MB-231 cells transfected with PIN1 siRNA at 5 to 10 uM by western blot analysis; type: functional, cell-based; conditions: dose 5-10 µM
# [26] = target: T1, Peptidyl-prolyl cis-trans isomerase NIMA-interacting 1; assay: Inhibition of Pin1 in human MDA-MB-231 cells assessed as reduction in MCL-1 gene expression incubated for 24 hrs by qRT-PCR analysis; type: cell-based; conditions: dose 4-8 µM
# [27] = target: T1, Peptidyl-prolyl cis-trans isomerase NIMA-interacting 1; assay: Inhibition of Pin1 in human MDA-MB-231 cells assessed as reduction in C-MYC gene expression incubated for 24 hrs by qRT-PCR analysis; type: cell-based; conditions: dose 4-8 µM
# [28] = target: T1, Peptidyl-prolyl cis-trans isomerase NIMA-interacting 1; assay: Inhibition of Pin1 in human MDA-MB-231 cells assessed as reduction in CCND1 gene expression incubated for 24 hrs by qRT-PCR analysis; type: cell-based; conditions: dose 4-8 µM
# MDA-MB-468 [29] = assay: Inhibition of colony formation in human MDA-MB-468 cells at 0.63 to 10 uM incubated for 12 days with 48 hrs fresh compound replenishment by crystal violet staining based analysis; type: functional, cell-based; conditions: dose 0.63-10 µM, time 12.0 day
# MDA-MB-231 [30] = assay: Inhibition of colony formation in human MDA-MB-231 cells at 0.63 to 10 uM incubated for 12 days with 48 hrs fresh compound replenishment by crystal violet staining based analysis; type: functional, cell-based; conditions: dose 0.63-10 µM, time 12.0 day
# [31] = target: T1, Peptidyl-prolyl cis-trans isomerase NIMA-interacting 1; assay: Covalent binding affinity to N-terminal His6-tagged human Pin1 expressed in Escherichia coli BL21 (DE3) assessed as increase in 292.1 Da molecular weight incubated for overnight by mass spectrometry
# [32] = target: T1, Peptidyl-prolyl cis-trans isomerase NIMA-interacting 1; assay: Inhibition of Pin1 in human MDA-MB-231 cells assessed as reduction in MCL-1 gene expression at 8 to 16 uM incubated for 24 hrs by qRT-PCR analysis; type: cell-based; conditions: dose 8-16 µM
# [33] = target: T1, Peptidyl-prolyl cis-trans isomerase NIMA-interacting 1; assay: Inhibition of Pin1 in human MDA-MB-231 cells assessed as reduction in C-MYC gene expression at 8 to 16 uM incubated for 24 hrs by qRT-PCR analysis; type: cell-based; conditions: dose 8-16 µM
# [34] = target: T1, Peptidyl-prolyl cis-trans isomerase NIMA-interacting 1; assay: Inhibition of Pin1 in human MDA-MB-231 cells assessed as reduction in CCND1 gene expression at 8 to 16 uM incubated for 24 hrs by qRT-PCR analysis; type: cell-based; conditions: dose 8-16 µM
compound,measurement,setting,value
O=C(CCl)N1CCC2(CC1)SCC(=O)N2Cc1ccc(Br)o1,Ratio IC50,[1],0.46
same,IC50,[2],610 nM
CC(Cl)C(=O)N1CCC2(CC1)SCC(=O)N2Cc1ccc(-c2ccccc2)o1 (centres undefined),Ratio IC50,[1],> 10
same,IC50,[2],> 100000 nM
O=C(CCl)N1CCC2(CC1)SCC(=O)N2Cc1ccccc1,inhibition,[3],> 50%
O=C(CCl)N1CCC2(CC1)SCC(=O)N2Cc1ccc(-c2ccc(-c3ccccc3)cc2)o1,Ratio IC50,[1],1
same,IC50,[2],1320 nM
Cc1cccc(N2C(=O)CSC23CCN(C(=O)CCl)CC3)c1,inhibition,[3],> 50%
C=CC(=O)N1CCC2(CC1)SCC(=O)N2Cc1ccc(-c2ccccc2)o1,Ratio IC50,[1],> 10
same,IC50,[2],> 100000 nM
CC(=O)N1CCC2(CC1)SCC(=O)N2Cc1ccc(-c2cccc3ccccc23)o1,Ratio IC50,[1],> 10
same,IC50,[2],> 100000 nM
CS(=O)(=O)c1ccc(-c2ccc(CN3C(=O)CSC34CCN(C(=O)CCl)CC4)o2)cc1,Ratio IC50,[1],0.27
same,IC50,[2],360 nM
O=C(CCl)N1CCC2(CC1)SCC(=O)N2Cc1ccc(-c2ccccc2)o1,Ratio IC50,[1],0.2
same,IC50,[2],260 nM
O=C(CCl)N1CCC2(CC1)SCC(=O)N2Cc1ccc(Cl)o1,Ratio IC50,[1],0.42
same,IC50,[2],560 nM
COc1ccc(-c2ccc(CN3C(=O)CSC34CCN(C(=O)CCl)CC4)o2)cc1,Ratio IC50,[1],0.19
same,IC50,[2],250 nM
O=C(CCl)N1CCC2(CC1)SCC(=O)N2c1ccc(Cl)cc1,inhibition,[3],> 50%
Cc1ccc(-c2ccc(CN3C(=O)CSC34CCN(C(=O)CCl)CC4)o2)cc1,Ratio IC50,[1],0.2
same,IC50,[2],270 nM
CC(=O)N1CCC2(CC1)SCC(=O)N2Cc1ccco1,Ratio IC50,[1],> 10
same,IC50,[2],> 100000 nM
N#Cc1ccc(-c2ccc(CN3C(=O)CSC34CCN(C(=O)CCl)CC4)o2)cc1,Ratio IC50,[1],0.33
same,IC50,[2],440 nM
O=C(CCl)N1CCC2(CC1)SCC(=O)N2Cc1ccc(-c2cccc3ccccc23)o1,Activity,[4],100%
same,Ratio IC50,[1],0.05
same,inhibition,MDA-MB-231 [5],inactive
same,IC50,MDA-MB-231 [6],2800 nM
same,IC50,MDA-MB-468 [7],1900 nM
same,Activity,MDA-MB-468 [8],Active
same,inhibition,[9],Dose-Dependent Effect
same,inhibition,[10],Active
same,inhibition,[11],Active
same,inhibition,[12],Active
same,inhibition,MDA-MB-231 [13],inactive
same,inhibition,MDA-MB-231 [14],inactive
same,inhibition,MDA-MB-231 [15],inactive
same,IC50,[2],67 nM
same,Activity,[16],Active
same,Activity,[17],Active
same,inhibition,Homo sapiens,Active
same,inhibition,[18],inactive
same,Activity,[19],inactive
same,Kinact,[20],0.058 min⁻¹
same,Ratio,[21],27.1 M⁻¹ s⁻¹
same,inhibition,MDA-MB-468 [22],Active
same,inhibition,MDA-MB-231 [23],Active
same,inhibition,MDA-MB-231 [24],inactive
same,inhibition,MDA-MB-231 [25],inactive
same,inhibition,[26],Dose-Dependent Effect
same,inhibition,[27],Dose-Dependent Effect
same,inhibition,[28],Dose-Dependent Effect
O=C(CCl)N1CCC2(CC1)SCC(=O)N2Cc1ccc(-c2ccc(C(F)(F)F)cc2)o1,Ratio IC50,[1],0.54
same,IC50,[2],720 nM
O=C(CCl)N1CCC2(CC1)SCC(=O)N2Cc1ccco1,Activity,[4],100%
same,inhibition,[3],> 50%
same,IC50,MDA-MB-231 [6],12800 nM
same,IC50,MDA-MB-468 [7],8600 nM
same,inhibition,MDA-MB-468 [29],Active
same,inhibition,MDA-MB-231 [30],Active
same,IC50,[2],1330 nM
same,Activity,[31],Active
same,Activity,[16],Active
same,inhibition,[32],Active
same,inhibition,[33],Active
same,inhibition,[34],Active
O=C(CCl)N1CCC2(CC1)SCC(=O)N2Cc1ccc(-c2ccc3ccccc3c2)o1,Ratio IC50,[1],0.29
same,IC50,[2],380 nM
O=C(CCl)N1CCC2(CC1)SCC(=O)N2CCc1ccc(-c2ccccc2)o1,Ratio IC50,[1],0.8
same,IC50,[2],1060 nM
Cc1ccc(N2C(=O)CSC23CCN(C(=O)CCl)CC3)cc1,inhibition,[3],> 50%
